How the values were obtained:
[1] = molecular target: Adenosine receptor A2a (Homo sapiens, UniProt P29274); assay: A2A Binding Affinity Using SPA
[2] = molecular target: T1, Adenosine receptor A2b (Homo sapiens, UniProt P29275); assay: A2B Binding Affinity Assay
T1 sequence (P29275 whole entry): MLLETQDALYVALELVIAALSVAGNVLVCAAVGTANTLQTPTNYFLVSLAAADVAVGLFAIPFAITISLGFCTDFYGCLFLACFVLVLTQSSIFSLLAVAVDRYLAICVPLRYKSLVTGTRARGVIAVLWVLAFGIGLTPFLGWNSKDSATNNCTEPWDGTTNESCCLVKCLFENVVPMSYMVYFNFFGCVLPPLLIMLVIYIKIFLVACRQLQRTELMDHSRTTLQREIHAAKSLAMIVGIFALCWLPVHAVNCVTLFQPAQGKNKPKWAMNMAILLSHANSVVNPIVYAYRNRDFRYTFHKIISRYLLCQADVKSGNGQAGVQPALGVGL

Chain of Adenosine receptor A2a (P29274 whole entry): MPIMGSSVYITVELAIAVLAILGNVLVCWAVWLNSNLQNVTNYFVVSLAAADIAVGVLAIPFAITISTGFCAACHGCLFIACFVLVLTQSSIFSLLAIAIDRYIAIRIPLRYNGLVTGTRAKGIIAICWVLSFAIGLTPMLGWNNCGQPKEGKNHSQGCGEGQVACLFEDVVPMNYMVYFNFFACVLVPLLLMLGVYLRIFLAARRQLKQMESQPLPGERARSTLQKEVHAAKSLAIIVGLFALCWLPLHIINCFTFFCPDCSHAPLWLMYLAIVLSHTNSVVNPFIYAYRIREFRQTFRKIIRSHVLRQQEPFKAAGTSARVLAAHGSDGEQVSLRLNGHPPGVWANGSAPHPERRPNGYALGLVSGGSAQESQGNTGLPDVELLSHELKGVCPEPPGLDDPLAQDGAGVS

Compound | IC50 [1] [nM] | IC50 [2] [nM]
COc1cc(F)cc2c1nc(N)n1nc(C3CC3(F)c3ccccc3)nc21 (centres undefined) [US20250171447, Ex-29] | 3.5 | 45
COc1cccc2c1nc(N)n1nc(C3CC3CO)nc21 (centres undefined) [US20250171447, Ex-35] | 7.3 | 105
COc1cccc2c1nc(N)n1nc(C3CC3CO)nc21 (centres undefined) [US20250171447, Ex-36] | 20.5 | 805
COc1cc(F)cc2c1nc(N)n1nc(C3CC3(F)c3ccccc3)nc21 (centres undefined) [US20250171447, Ex-39] | 0.6 | 71.9
COc1cc(F)cc2c1nc(N)n1nc([C@H]3C[C@H](c4ccc(C(C)(C)O)cn4)C3)nc21 [US20250171447, Ex-44] | 2.4 | 
COc1ccc2c(c1)nc(N)n1nc([C@H]3C[C@H](c4ccc(CC(C)(C)O)cn4)C3)nc21 [US20250171447, Ex-56] | 17.8 | 
COc1ccc2c(c1)nc(N)n1nc([C@H]3C[C@@H](c4ccc(C(C)(C)O)cn4)C3)nc21 [US20250171447, Ex-59] | 5.7 | 
COc1ccc2c(c1)nc(N)n1nc([C@H]3C[C@@H](c4ncc(C(C)(C)O)cn4)C3)nc21 [US20250171447, Ex-62] | 107 | 
CC(C)(O)c1ccc([C@H]2C[C@@H](c3nc4c5cc(F)cc(F)c5nc(N)n4n3)C2)nc1 [US20250171447, Ex-63] | 7 | 0.4
CC(C)(O)c1ccc([C@H]2C[C@H](c3nc4c5cc(F)cc(F)c5nc(N)n4n3)C2)nc1 [US20250171447, Ex-64] | 16 | 1.7
COc1cccc2c1nc(N)n1nc([C@H]3C[C@@H](c4ccc(CC(C)(C)O)cn4)C3)nc21 [US20250171447, Ex-65] | 2.1 | 
COc1cccc2c1nc(N)n1nc([C@H]3C[C@H](c4ccc(C(C)(C)N)nc4)C3)nc21 [US20250171447, Ex-84] | 8.2 | 
COc1cccc2c1nc(N)n1nc(C3CC(c4ncc(C(C)(C)N)cc4Cl)C3)nc21 (centres undefined) [US20250171447, Ex-87] | 0.8 | 2.7
COc1cccc2c1nc(N)n1nc([C@H]3C[C@H](c4ccc(C5(O)CC(F)(F)C5)cn4)C3)nc21 [US20250171447, Ex-103] | 1.1 | 
Cc1nc(C(C)(C)N)cnc1[C@H]1C[C@H](c2nc3c4cc(F)cc(F)c4nc(N)n3n2)C1 [US20250171447, Ex-129] | 4.5 | 

Now from value to compound:

IC50 [1] [nM] | IC50 [2] [nM] | Compound
44.2 | 27.3 | COc1cc(F)cc2c1nc(N)n1nc(C3CC3c3ccc(F)cc3)nc21 (centres undefined) [US20250171447, Ex-31]
377 | 601 | COc1cc(F)cc2c1nc(N)n1nc(C3CC3(F)c3ccccc3)nc21 (centres undefined) [US20250171447, Ex-32]
472 | 62.4 | COc1cc(F)cc2c1nc(N)n1nc(C3CC3(F)c3ccccc3)nc21 (centres undefined) [US20250171447, Ex-33]
1.6 | 6.2 | COc1cc(F)cc2c1nc(N)n1nc([C@H]3C[C@@H](c4ccc(C(C)(C)O)cn4)C3)nc21 [US20250171447, Ex-45]
8.8 |  | COc1cccc2c1nc(N)n1nc([C@H]3C[C@H](c4ccc(C(C)(C)O)nc4)C3)nc21 [US20250171447, Ex-53]
1.1 | 6.9 | COc1cccc2c1nc(N)n1nc([C@H]3C[C@@H](c4ccc(C(C)(C)O)nc4)C3)nc21 [US20250171447, Ex-54]
15.5 |  | COc1ccc2c(c1)nc(N)n1nc([C@H]3C[C@@H](c4ccc(CC(C)(C)O)cn4)C3)nc21 [US20250171447, Ex-55]
47.4 |  | COc1ccc2c(c1)nc(N)n1nc([C@H]3C[C@@H](c4cnc(C(C)(C)O)cn4)C3)nc21 [US20250171447, Ex-57]
136 |  | COc1ccc2c(c1)nc(N)n1nc([C@H]3C[C@H](c4cnc(C(C)(C)O)cn4)C3)nc21 [US20250171447, Ex-58]
7.9 |  | COc1ccc2c(c1)nc(N)n1nc([C@H]3C[C@H](c4ccc(C(C)(C)O)cn4)C3)nc21 [US20250171447, Ex-60]
42.6 |  | COc1ccc2c(c1)nc(N)n1nc([C@H]3C[C@H](c4ncc(C(C)(C)O)cn4)C3)nc21 [US20250171447, Ex-61]
2 |  | COc1cccc2c1nc(N)n1nc([C@H]3C[C@H](c4ccc(CC(C)(C)O)cn4)C3)nc21 [US20250171447, Ex-66]
3.1 |  | COc1cccc2c1nc(N)n1nc(C3CC(c4ccc(C5(C#N)CNC5)nc4)C3)nc21 (centres undefined) [US20250171447, Ex-116]
52 |  | Cc1nc(C(C)(C)N)cnc1[C@H]1C[C@@H](c2nc3c4cccc(Cl)c4nc(N)n3n2)C1 [US20250171447, Ex-128]
89.2 |  | Cc1nc(C(C)(C)N)cnc1[C@H]1C[C@@H](c2nc3c4cc(F)cc(F)c4nc(N)n3n2)C1 [US20250171447, Ex-130]
2.5 |  | COc1cc2nc(N)n3nc([C@H]4C[C@H](c5ncc(C(C)(C)N)nc5C)C4)nc3c2cc1F [US20250171447, Ex-131]
37.2 |  | COc1cc2nc(N)n3nc([C@H]4C[C@@H](c5ncc(C(C)(C)N)nc5C)C4)nc3c2cc1F [US20250171447, Ex-132]

Source: BindingDB's records for patent US20250171447 (Merck Sharp & Dohme, 2025)
